Data taken from US9187472B2 (AbbVie Inc., priority 2012, dated 2015).

How the values were obtained:
[1] = molecular target: NAMPT (human, recombinant, C-terminally His-tagged) (Homo sapiens, UniProt P43490); test: Time-Resolved Fluorescence Resonance Energy Transfer (TR-FRET) Binding Assay of NAMPT; settings: without substrates; 6.8 nM NAMPT, 200 nM probe, 3 hours equilibration
How it was run: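 Probe displacement by compound was measured with 6.8 nM NAMPT, 200 nM Oregon Green 488-conjugated nicotinamide-competitive inhibitor probe and 1 nM Tb-anti-His antibody in 50 mM HEPES pH 7.5, 100 mM NaCl, 10 mM MgCl2, 1 mM DTT, 1% glycerol, 2% DMSO (final). After 3 h at room temperature, TR-FRET was read; IC50 from four-parameter logistic fit.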

NAMPT = NAMPT (Homo sapiens, UniProt P43490); test: TR-FRET Binding Assay of NAMPT with PRPP; settings: with 200 μM PRPP and 2.5 mM ATP; 2 nM NAMPT, 2 nM probe, 16 hours equilibration
Chain of NAMPT (P43490 whole entry): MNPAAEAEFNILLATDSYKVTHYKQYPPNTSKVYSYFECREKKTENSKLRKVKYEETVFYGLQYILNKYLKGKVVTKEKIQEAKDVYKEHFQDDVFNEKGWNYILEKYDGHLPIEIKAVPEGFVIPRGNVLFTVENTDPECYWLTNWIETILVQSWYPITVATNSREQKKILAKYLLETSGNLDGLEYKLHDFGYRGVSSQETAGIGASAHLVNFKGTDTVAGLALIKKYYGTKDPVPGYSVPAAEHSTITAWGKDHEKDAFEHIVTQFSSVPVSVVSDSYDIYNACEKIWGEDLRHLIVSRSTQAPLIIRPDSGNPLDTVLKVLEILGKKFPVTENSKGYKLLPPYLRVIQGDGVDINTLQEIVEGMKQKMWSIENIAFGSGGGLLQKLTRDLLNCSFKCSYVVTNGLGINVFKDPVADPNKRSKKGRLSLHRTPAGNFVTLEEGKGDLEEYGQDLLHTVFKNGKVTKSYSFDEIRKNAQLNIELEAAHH
How it was run: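 Run in the presence of substrates (200 μM PRPP, 2.5 mM ATP) with final 2 nM NAMPT, 2 nM probe, 1 nM Tb-anti-His antibody and 2% DMSO. Mixtures equilibrated 16 h before TR-FRET measurement so test compounds could be enzymatically modified.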

PC3 cells = test: NAMPT Cell Proliferation Assay; type: cell-based; settings: Homo sapiens, PC-3, 120 h, 5 days incubation, cell viability by Cell Titer Glo
How it was run: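 IC50 values derive from sigmoidal dose-response fits of percent inhibition of PC3 viability, measured by luminescence after 5 days of compound treatment. Cells (500/well, RPMI containing 10% heat-inactivated FBS) are allowed to attach overnight, and compounds are tested at 10-fold dilutions between 10 μM and 1×10^−5 μM.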

Chain of NAMPT (human, recombinant, C-terminally His-tagged) (P43490 whole entry): as above

Row | Structure (SMILES) | IC50 [1] [nM] | IC50 (NAMPT) [nM] | IC50 (PC3 cells) [nM]
1 | CC/C=C(\C)C(=O)N1CCC(c2ccc(C(=O)NCc3ccn4ccnc4c3)s2)C1 (stereo not drawn) [Example 777, N-(imidazo[1,2-a]pyridin-7-ylmethyl)-5-{1-[(2E)-2-methylpent-2-enoyl]pyrrolidin-3-yl}thiophene-2-carboxamide] | 39.4 | 0.92 | 1.26
2 | Cc1cc(C(=O)N2CCC(c3ccc(C(=O)NCc4ccn5ccnc5c4)s3)C2)c(C)o1 (stereo not drawn) [Example 778, 5-{1-[(2,5-dimethylfuran-3-yl)carbonyl]pyrrolidin-3-yl}-N-(imidazo[1,2-a]pyridin-7-ylmethyl)thiophene-2-carboxamide] | 27.6 | 0.414 | 0.896
3 | O=C(NCc1ccn2ccnc2c1)c1ccc(C2CCN(C(=O)c3cccc(Cl)c3)C2)s1 (stereo not drawn) [Example 779, 5-[1-(3-chlorobenzoyl)pyrrolidin-3-yl]-N-(imidazo[1,2-a]pyridin-7-ylmethyl)thiophene-2-carboxamide] | 14.2 | 0.603 | 0.499
4 | CCC(=O)N1CCC(c2ccc(C(=O)NCc3ccn4ccnc4c3)s2)C1 (stereo not drawn) [Example 780, N-(imidazo[1,2-a]pyridin-7-ylmethyl)-5-(1-propanoylpyrrolidin-3-yl)thiophene-2-carboxamide] | 250 | 0.382 | 81.7
5 | N#CC1(C(=O)N2CCC(c3ccc(C(=O)NCc4ccn5ccnc5c4)s3)C2)CC1 (stereo not drawn) [Example 781, 5-{1-[(1-cyanocyclopropyl)carbonyl]pyrrolidin-3-yl}-N-(imidazo[1,2-a]pyridin-7-ylmethyl)thiophene-2-carboxamide] | 87.5 | 0.839 | 7.27
6 | CCCC(=O)N1CCC(c2ccc(C(=O)NCc3ccn4ccnc4c3)s2)C1 (stereo not drawn) [Example 782, 5-(1-butanoylpyrrolidin-3-yl)-N-(imidazo[1,2-a]pyridin-7-ylmethyl)thiophene-2-carboxamide] | 134 | 0.466 | 24.7
7 | O=C(NCc1ccn2ccnc2c1)c1ccc(C2CCN(C(=O)c3ccco3)C2)s1 (stereo not drawn) [Example 783, 5-[1-(furan-2-ylcarbonyl)pyrrolidin-3-yl]-N-(imidazo[1,2-a]pyridin-7-ylmethyl)thiophene-2-carboxamide] | 64.4 | 0.907 | 9.8
8 | COc1ccc(C(=O)N2CCC(c3ccc(C(=O)NCc4ccn5ccnc5c4)s3)C2)cc1 (stereo not drawn) [Example 784, N-(imidazo[1,2-a]pyridin-7-ylmethyl)-5-[1-(4-methoxybenzoyl)pyrrolidin-3-yl]thiophene-2-carboxamide] | 22.6 | 0.455 | 2.38
9 | O=C(NCc1ccn2ccnc2c1)c1ccc(C2CCN(C(=O)c3cc(F)ccc3F)C2)s1 (stereo not drawn) [Example 785, 5-[1-(2,5-difluorobenzoyl)pyrrolidin-3-yl]-N-(imidazo[1,2-a]pyridin-7-ylmethyl)thiophene-2-carboxamide] | 23.6 | 0.638 | 0.839
10 | O=C(NCc1ccn2ccnc2c1)c1ccc(C2CCN(C(=O)c3cccs3)C2)s1 (stereo not drawn) [Example 786, N-(imidazo[1,2-a]pyridin-7-ylmethyl)-5-[1-(thiophen-2-ylcarbonyl)pyrrolidin-3-yl]thiophene-2-carboxamide] | 44.4 | 0.484 | 7.51
11 | CC(C)(C)C(=O)N1CCC(c2ccc(C(=O)NCc3ccn4ccnc4c3)s2)C1 (stereo not drawn) [Example 787, 5-[1-(2,2-dimethylpropanoyl)pyrrolidin-3-yl]-N-(imidazo[1,2-a]pyridin-7-ylmethyl)thiophene-2-carboxamide] | 55 | 0.474 | 6.75
12 | CC(C)(C)CC(=O)N1CCC(c2ccc(C(=O)NCc3ccn4ccnc4c3)s2)C1 (stereo not drawn) [Example 788, 5-[1-(3,3-dimethylbutanoyl)pyrrolidin-3-yl]-N-(imidazo[1,2-a]pyridin-7-ylmethyl)thiophene-2-carboxamide] | 82 | 0.674 | 5.44
13 | CC1(Cn2cc(-c3ccc(C(=O)NCc4ccn5ccnc5c4)s3)cn2)CCNCC1 [Example 789, N-(imidazo[1,2-a]pyridin-7-ylmethyl)-5-{1-[(4-methylpiperidin-4-yl)methyl]-1H-pyrazol-4-yl}thiophene-2-carboxamide] | 21.7 | 0.434 | 69.4
14 | O=C(NCc1ccn2ccnc2c1)c1ccc(-c2cnn(CC3(F)CCOCC3)c2)o1 [Example 790, 5-{1-[(4-fluorotetrahydro-2H-pyran-4-yl)methyl]-1H-pyrazol-4-yl}-N-(imidazo[1,2-a]pyridin-7-ylmethyl)furan-2-carboxamide] | 79.5 | 0.586 | 2.6
15 | CCC(C)(C)C(=O)N1CCC(c2ccc(C(=O)NCc3ccn4ccnc4c3)s2)C1 (stereo not drawn) [Example 791, 5-[1-(2,2-dimethylbutanoyl)pyrrolidin-3-yl]-N-(imidazo[1,2-a]pyridin-7-ylmethyl)thiophene-2-carboxamide] | 47.1 | 1.15 | 0.898
16 | O=C(NCc1ccn2ccnc2c1)c1ccc(C2CCN(C(=O)c3cnccn3)C2)s1 (stereo not drawn) [Example 792, N-(imidazo[1,2-a]pyridin-7-ylmethyl)-5-[1-(pyrazin-2-ylcarbonyl)pyrrolidin-3-yl]thiophene-2-carboxamide] | 116 | 0.5 | 9.57
17 | Cc1ccsc1C(=O)N1CCC(c2ccc(C(=O)NCc3ccn4ccnc4c3)s2)C1 (stereo not drawn) [Example 793, N-(imidazo[1,2-a]pyridin-7-ylmethyl)-5-{1-[(3-methylthiophen-2-yl)carbonyl]pyrrolidin-3-yl}thiophene-2-carboxamide] | 23.1 | 0.398 | 1.02
18 | Cc1ccccc1C(=O)N1CCC(c2ccc(C(=O)NCc3ccn4ccnc4c3)s2)C1 (stereo not drawn) [Example 794, N-(imidazo[1,2-a]pyridin-7-ylmethyl)-5-[1-(2-methylbenzoyl)pyrrolidin-3-yl]thiophene-2-carboxamide] | 29 | 0.465 | 0.883
19 | CC1(C(=O)N2CCC(c3ccc(C(=O)NCc4ccn5ccnc5c4)s3)C2)CC1 (stereo not drawn) [Example 795, N-(imidazo[1,2-a]pyridin-7-ylmethyl)-5-{1-[(1-methylcyclopropyl)carbonyl]pyrrolidin-3-yl}thiophene-2-carboxamide] | 89.6 | 0.764 | 6.2
20 | O=C(NCc1ccn2ccnc2c1)c1ccc(C2CCN(C(=O)CCC(F)(F)F)C2)s1 (stereo not drawn) [Example 796, N-(imidazo[1,2-a]pyridin-7-ylmethyl)-5-[1-(4,4,4-trifluorobutanoyl)pyrrolidin-3-yl]thiophene-2-carboxamide] | 91.7 | 0.49 | 4.65
21 | Cc1noc(C)c1C(=O)N1CCC(c2ccc(C(=O)NCc3ccn4ccnc4c3)s2)C1 (stereo not drawn) [Example 797, 5-{1-[(3,5-dimethyl-1,2-oxazol-4-yl)carbonyl]pyrrolidin-3-yl}-N-(imidazo[1,2-a]pyridin-7-ylmethyl)thiophene-2-carboxamide] | 97.2 | 0.671 | 6.98
22 | O=C(NCc1ccn2ccnc2c1)c1ccc(C2CCN(C(=O)c3cccnc3)C2)s1 (stereo not drawn) [Example 798, N-(imidazo[1,2-a]pyridin-7-ylmethyl)-5-[1-(pyridin-3-ylcarbonyl)pyrrolidin-3-yl]thiophene-2-carboxamide] | 95.7 | 0.47 | 9.63
23 | Cn1nccc1C(=O)N1CCC(c2ccc(C(=O)NCc3ccn4ccnc4c3)s2)C1 (stereo not drawn) [Example 799, N-(imidazo[1,2-a]pyridin-7-ylmethyl)-5-{1-[(1-methyl-1H-pyrazol-5-yl)carbonyl]pyrrolidin-3-yl}thiophene-2-carboxamide] | 102 | 0.406 | 6.96
24 | CC(C)C(C)C(=O)N1CCC(c2ccc(C(=O)NCc3ccn4ccnc4c3)s2)C1 (stereo not drawn) [Example 800, 5-[1-(2,3-dimethylbutanoyl)pyrrolidin-3-yl]-N-(imidazo[1,2-a]pyridin-7-ylmethyl)thiophene-2-carboxamide] | 82.1 | 0.925 | 6.21
25 | O=C(NCc1ccn2ccnc2c1)c1ccc(C2=CCN(S(=O)(=O)c3ccccc3)CC2)o1 [Example 801, N-(imidazo[1,2-a]pyridin-7-ylmethyl)-5-[1-(phenylsulfonyl)-1,2,3,6-tetrahydropyridin-4-yl]furan-2-carboxamide] | 866 | 1 | 57.3
26 | O=C(NCc1ccn2ccnc2c1)c1cnc(C2CCN(C(=O)c3ccccc3F)CC2)s1 [Example 802, 2-[1-(2-fluorobenzoyl)piperidin-4-yl]-N-(imidazo[1,2-a]pyridin-7-ylmethyl)-1,3-thiazole-5-carboxamide] | 35.9 | 0.533 | 5.83
27 | O=C(NCc1ccn2ccnc2c1)c1ccc(C2=CCN(C(=O)c3ccccc3F)CC2)o1 [Example 803, 5-[1-(2-fluorobenzoyl)-1,2,3,6-tetrahydropyridin-4-yl]-N-(imidazo[1,2-a]pyridin-7-ylmethyl)furan-2-carboxamide] | 314 | 1.01 | 17.6
